For 29 compounds, IC50 results are on record in patent US11384067B2, “Pyrazole n-linked carbamoyl cyclohexyl acids as LPA antagonists” (BRISTOL-MYERS SQUIBB COMPANY, priority 2017, dated 2022).

The target in the test is T1, human LPA1 (Homo sapiens, UniProt Q92633).
T1 construct: expressed in transfected cells; host or cells: Chinese hamster ovary (CHO) cells
T1 sequence (Q92633 whole entry): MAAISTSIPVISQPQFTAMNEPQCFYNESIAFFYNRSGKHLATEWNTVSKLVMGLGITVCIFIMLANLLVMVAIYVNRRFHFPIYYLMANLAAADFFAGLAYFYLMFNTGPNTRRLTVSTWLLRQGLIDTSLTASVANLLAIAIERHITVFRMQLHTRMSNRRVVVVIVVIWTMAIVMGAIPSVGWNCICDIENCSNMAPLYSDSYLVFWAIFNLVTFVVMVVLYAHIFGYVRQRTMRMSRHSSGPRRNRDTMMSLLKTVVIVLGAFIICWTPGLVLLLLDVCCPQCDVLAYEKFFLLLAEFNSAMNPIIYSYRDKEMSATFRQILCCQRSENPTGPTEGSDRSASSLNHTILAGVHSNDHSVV
The experiment in a line: LPA1 functional antagonist assay (LPA-induced calcium flux). Conditions: CHO cells overexpressing human LPA1, 10 nM LPA, read-out: hLPA1 IC50. The test is classed as cell-based. The procedure:
The effectiveness of compounds of the present invention as LPA1 inhibitors can be determined in an LPA1 functional antagonist assay as follows:
The cells were then equilibrated to room temperature for 30 minutes before the assay. […] IC50 values were determined by fitting data to a 4-parameter logistic equation (GraphPad Prism, San Diego Calif.).
Background: A change in cytosolic calcium serves as a functional read-out for many receptors and channels.
On to `Cc1nc(-c2cnn(C)c2CNC(=O)OCC(C)C)ncc1O[C@H]1CCC[C@H](C(=O)O)C1` [Example 38, (1S,3S)-3-((2-(5-(((isobutoxy-carbonyl)amino)methyl)-1-methyl-1H-pyrazol-4-yl)-4-methylpyrimidin-5-yl)oxy)cyclohexane-1-carboxylic acid], for which the IC50 was 0.218 µM.
Next, `CC(C)COC(=O)NCc1c(-c2ccc(O[C@H]3CCC[C@H](C(=O)O)C3)cn2)cnn1C` [Example 17, (1S,3S)-3-((6-(5-(((isobutoxy-carbonyl)amino)methyl)-1-methyl-1H-pyrazol-4-yl)pyridin-3-yl)oxy)cyclohexane-1-carboxylic acid]: 1.64 µM; `CCCCOC(=O)N(C)Cc1c(-c2ccc(O[C@H]3CCC[C@H](C(=O)O)C3)cn2)cnn1C` [Example 23, (1S,3S)-3-((6-(5-(((butoxycarbonyl)(methyl)amino)methyl)-1-methyl-1H-pyrazol-4-yl)pyridin-3-yl)oxy)cyclohexane-1-carboxylic acid]: 0.243 µM; `CC[C@H](C)COC(=O)NCc1c(-c2ccc(O[C@H]3CCC[C@H](C(=O)O)C3)c(C)n2)cnn1C` [Example 34, (1S,3S)-3-((2-methyl-6-(1-methyl-5-(((((S)-2-methylbutoxy)carbonyl)amino)methyl)-1H-pyrazol-4-yl)pyridin-3-yl)oxy)cyclohexane-1-carboxylic acid]: 0.02 µM.
Next, `CCCCOC(=O)Nc1c(-c2ncc(O[C@H]3CCC[C@H](C(=O)O)C3)c(C)n2)cnn1C` [Example 42, (1S,3S)-3-((2-(5-((butoxycarbonyl)amino)-1-methyl-1H-pyrazol-4-yl)-4-methylpyrimidin-5-yl)oxy)cyclohexane-1-carboxylic acid]: 0.239 µM; `Cc1nc(-c2cnn(C)c2CNC(=O)OCc2ccccc2)cnc1O[C@H]1CCC[C@H](C(=O)O)C1` [Example 31, (1S,3S)-3-((5-(5-((((benzyloxy)carbonyl)amino)methyl)-1-methyl-1H-pyrazol-4-yl)-3-methylpyrazin-2-yl)oxy)cyclohexane-1-carboxylic acid]: 0.029 µM.
Next, `CCCCCOC(=O)NCc1c(-c2ccc(O[C@H]3CCC[C@H](C(=O)O)C3)c(C)n2)cnn1C` [Example 19, (1S,3S)-3-((2-methyl-6-(1-methyl-5-((((pentyloxy)carbonyl)amino)methyl)-1H-pyrazol-4-yl)pyridin-3-yl)oxy)cyclohexane-1-carboxylic acid]: 0.004 µM; `Cc1nc(-c2cnn(C)c2CNC(=O)OCC(C)C)cnc1O[C@H]1CCC[C@H](C(=O)O)C1` [Example 29, (1S,3S)-3-((5-(5-(((isobutoxy-carbonyl)amino)methyl)-1-methyl-1H-pyrazol-4-yl)-3-methylpyrazin-2-yl)oxy)cyclohexane-1-carboxylic acid]: 1.2 µM.
As for `CCCCCCOC(=O)NCc1c(-c2ccc(O[C@H]3CCC[C@H](C(=O)O)C3)c(C)n2)cnn1C` [Example 26], the IC50 amounted to 0.014 µM.
Consider `CCCCOC(=O)NCc1c(-c2ccc(O[C@H]3CCC[C@H](C(=O)O)C3)c(C)n2)cnn1C` [Example 1, (1S,3S)-3-((6-(5-(((Butoxycarbonyl)amino)methyl)-1-methyl-1H-pyrazol-4-yl)-2-methylpyridin-3-yl)oxy)cyclohexanecarboxylic Acid], for which the 50% inhibitory concentration (IC50) amounted to 0.028 µM.
Next, `Cn1ncc(-c2ccc(O[C@H]3CCC[C@H](C(=O)O)C3)cn2)c1CNC(=O)OCCc1ccccc1` [Example 22, (1S,3S)-3-((6-(1-methyl-5-(((phen-ethoxycarbonyl)amino)methyl)-1H-pyrazol-4-yl)pyridin-3-yl)oxy)cyclohexane-1-carboxylic acid]: 0.355 µM.
Next, `Cc1cccc(COC(=O)NCc2c(-c3ccc(O[C@H]4CCC[C@H](C(=O)O)C4)cn3)cnn2C)c1` [Example 7, (1S,3S)-3-((6-(1-methyl-5-(((((3-methylbenzyl)oxy)carbonyl)amino)methyl)-1H-pyrazol-4-yl)pyridin-3-yl)oxy)cyclohexane-1-carboxylic acid]: 0.28 µM.
Next, `CC[C@H](C)COC(=O)NCc1c(-c2ncc(O[C@H]3CCC[C@H](C(=O)O)C3)c(C)n2)cnn1C` [Example 36, (1S,3S)-3-((4-methyl-2-(I-methyl-5-(((((S)-2-methylbutoxy)carbonyl)amino)methyl)-1H-pyrazol-4-yl)pyrimidin-5-yl)oxy)cyclohexane-1-carboxylic Acid]: 0.031 µM.
Regarding `CCCCCOC(=O)NCc1c(-c2ccc(O[C@H]3CCC[C@H](C(=O)O)C3)cn2)cnn1C` [Example 12, (1S,3S)-3-((6-(1-methyl-5-((((pentyl-oxy)carbonyl)amino)methyl)-1H-pyrazol-4-yl)pyridin-3-yl)oxy)cyclohexane-1-carboxylic acid], the IC50 came out at 0.016 µM.
For the compound `CCCCOC(=O)NCc1c(-c2cnc(O[C@H]3CCC[C@H](C(=O)O)C3)c(C)n2)cnn1C` [Example 30, (1S,3S)-3-((5-(5-(((butoxycarbonyl)amino)methyl)-1-methyl-1H-pyrazol-4-yl)-3-methylpyrazin-2-yl)oxy)cyclohexane-1-carboxylic acid], the IC50 is 0.283 µM.
Next, `Cn1ncc(-c2ccc(O[C@H]3CCC[C@H](C(=O)O)C3)cn2)c1CNC(=O)OCc1cc(F)cc(F)c1` [Example 8, (1S,3S)-3-((6-(5-(((((3,5-difluoro-benzyl)oxy)carbonyl)amino)methyl)-1-methyl-1H-pyrazol-4-yl)pyridin-3-yl)oxy)cyclohexane-1-carboxylic acid]: 0.111 µM.
For the compound `Cc1nc(-c2cnn(C)c2NC(=O)OCC(C)C)ncc1O[C@H]1CCC[C@H](C(=O)O)C1` [Example 43], the IC50 came out at 0.564 µM.
As to `Cc1nc(-c2cnn(C)c2NC(=O)O[C@H](C)C2CC2)ncc1O[C@H]1CCC[C@H](C(=O)O)C1` [Example 41, (1S,3S)-3-((2-(5-((((R)-1-cyclopropyl-ethoxy)carbonyl)amino)-1-methyl-1H-pyrazol-4-yl)-4-methylpyrimidin-5-yl)oxy)cyclohexane-1-carboxylic acid], the IC50 amounted to 0.08 µM.
Next, `Cn1ncc(-c2ccc(O[C@H]3CCC[C@H](C(=O)O)C3)cn2)c1CNC(=O)OCc1cc(F)ccc1F` [Example 9, (1S,3S)-3-((6-(5-(((((2,5-difluoro-benzyl)oxy)carbonyl)amino)methyl)-1-methyl-1H-pyrazol-4-yl)pyridin-3-yl)oxy)cyclohexane-1-carboxylic acid]: 0.071 µM; `CCCCCCOC(=O)NCc1c(-c2ccc(O[C@H]3CCC[C@H](C(=O)O)C3)cn2)cnn1C` [Example 13, (1S,3S)-3-((6-(5-((((hexyloxy)carbonyl)amino)methyl)-1-methyl-1H-pyrazol-4-yl)pyridin-3-yl)oxy)cyclohexane-1-carboxylic acid]: 0.834 µM.
Next, `Cc1nc(-c2cnn(C)c2CNC(=O)OCc2ccccc2)ncc1O[C@H]1CCC[C@H](C(=O)O)C1` [Example 37, (1S,3S)-3-((2-(5-((((benzyloxy)carbonyl)amino)methyl)-1-methyl-1H-pyrazol-4-yl)-4-methylpyrimidin-5-yl)oxy)cyclohexane-1-carboxylic Acid]: 0.016 µM; `C[C@@H](OC(=O)NCc1c(-c2ccc(O[C@H]3CCC[C@H](C(=O)O)C3)cn2)cnn1C)c1ccccc1` [Example 16, (1S,3S)-3-((6-(1-methyl-5-(((((R)-1-phenylethoxy)carbonyl)amino)methyl)-1H-pyrazol-4-yl)pyridin-3-yl)oxy)cyclohexane-1-carboxylic acid]: 0.023 µM.
Next, `Cc1nc(-c2cnn(C)c2CNC(=O)OCc2cccc(F)c2)ccc1O[C@H]1CCC[C@H](C(=O)O)C1` [Example 4, (1S,3S)-3-((6-(5-(((((3-fluorobenzyl)oxy)carbonyl)amino)methyl)-1-methyl-1H-pyrazol-4-yl)-2-methyl-pyridin-3-yl)oxy)cyclohexane-1-carboxylic acid]: 0.012 µM; `Cn1ncc(-c2ccc(O[C@H]3CCC[C@H](C(=O)O)C3)cn2)c1CNC(=O)OCc1ccccc1` [Example 25, (1S,3S)-3-((6-(5-((((benzyloxy)carbonyl)amino)methyl)-1-methyl-1H-pyrazol-4-yl)pyridin-3-yl)oxy)cyclohexane-1-carboxylic acid]: 0.02 µM.
`Cc1nc(-c2cnn(C)c2NC(=O)OC(C)(C)C)ncc1O[C@H]1CCC[C@H](C(=O)O)C1` [Example 39, (1S,3S)-3-((2-(5-((tert-butoxycarbonyl)amino)-1-methyl-1H-pyrazol-4-yl)-4-methylpyrimidin-5-yl)oxy)cyclohexane-1-carboxylic Acid]: the IC50 was 1.52 µM.
Next, `Cc1nc(-c2cnn(C)c2CNC(=O)OCc2ccccc2)ccc1O[C@H]1CCC[C@H](C(=O)O)C1` [Example 33, (1S,3S)-3-((6-(5-((((benzyloxy)carbonyl)amino)methyl)-1-methyl-1H-pyrazol-4-yl)-2-methylpyridin-3-yl)oxy)cyclohexane-1-carboxylic acid]: 0.013 µM; `Cc1cccc(COC(=O)NCc2c(-c3ccc(O[C@H]4CCC[C@H](C(=O)O)C4)c(C)n3)cnn2C)c1` [Example 15, (1S,3S)-3-((2-methyl-6-(1-methyl-5-(((((3-methylbenzyl)oxy)carbonyl)amino)methyl)-1H-pyrazol-4-yl)pyridin-3-yl)oxy)cyclohexane-1-carboxylic acid]: 0.002 µM; `CN(Cc1c(-c2ccc(O[C@H]3CCC[C@H](C(=O)O)C3)cn2)cnn1C)C(=O)OCc1cc(F)ccc1F` [Example 10, (1S,3S)-3-((6-(5-(((((2,5-difluoro-benzyl)oxy)carbonyl)(methyl)amino)methyl)-1-methyl-1H-pyrazol-4-yl)pyridin-3-yl)oxy)cyclohexane-1-carboxylic acid]: 1.66 µM.
Next, `Cc1nc(-c2cnn(C)c2CN(C)C(=O)OCc2ccccc2)ccc1O[C@H]1CCC[C@H](C(=O)O)C1` [Example 32, (1S,3S)-3-((6-(5-((((benzyloxy)carbonyl)(methyl)amino)methyl)-1-methyl-1H-pyrazol-4-yl)-2-methyl-pyridin-3-yl)oxy)cyclohexane-1-carboxylic acid]: 0.211 µM.

In general, IC50 refers to the concentration that gives 50% inhibition.
